Paper PMC8215293 (The Journal of Biological Chemistry, 2021)
Where “and” joins values, the source holds several entries; their conditions need not be identical. Equal entries are not always repeated.

How the values were obtained:
[1] = target: T1, adrenodoxin–CYP11B2 fusion protein (Homo sapiens, UniProt P10109+P19099); format: binding; details: Adx-CYP11B2 fusion 0.2 μM, 5 cm path length
T1 sequence (P10109+P19099 with tags, fused parts or gaps): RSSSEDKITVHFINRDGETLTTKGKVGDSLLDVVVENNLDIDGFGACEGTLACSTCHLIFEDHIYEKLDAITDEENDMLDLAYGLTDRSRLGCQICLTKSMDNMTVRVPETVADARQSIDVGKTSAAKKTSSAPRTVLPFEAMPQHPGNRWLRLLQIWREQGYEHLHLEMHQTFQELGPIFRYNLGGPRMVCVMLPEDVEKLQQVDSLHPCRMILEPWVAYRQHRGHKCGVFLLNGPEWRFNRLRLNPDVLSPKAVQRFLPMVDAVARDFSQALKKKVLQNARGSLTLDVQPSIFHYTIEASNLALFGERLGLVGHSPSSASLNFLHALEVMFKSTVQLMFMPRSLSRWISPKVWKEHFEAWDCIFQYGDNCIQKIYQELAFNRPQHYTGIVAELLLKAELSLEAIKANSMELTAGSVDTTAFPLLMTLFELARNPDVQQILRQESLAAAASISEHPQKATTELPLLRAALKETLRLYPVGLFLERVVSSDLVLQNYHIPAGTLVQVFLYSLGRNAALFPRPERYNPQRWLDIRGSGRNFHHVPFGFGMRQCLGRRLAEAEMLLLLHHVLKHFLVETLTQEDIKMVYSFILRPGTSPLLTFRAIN

[2] = system: adrenodoxin–CYP11B2 fusion protein; format: binding, human; details: fusion versus isolated CYP11B2
CYP11B2 = target: T2, CYP11B2 (Homo sapiens, UniProt P19099); format: binding; details: isolated CYP11B2 0.2 μM, 5 cm path length
T2 sequence (P19099 30-503 limits assumed): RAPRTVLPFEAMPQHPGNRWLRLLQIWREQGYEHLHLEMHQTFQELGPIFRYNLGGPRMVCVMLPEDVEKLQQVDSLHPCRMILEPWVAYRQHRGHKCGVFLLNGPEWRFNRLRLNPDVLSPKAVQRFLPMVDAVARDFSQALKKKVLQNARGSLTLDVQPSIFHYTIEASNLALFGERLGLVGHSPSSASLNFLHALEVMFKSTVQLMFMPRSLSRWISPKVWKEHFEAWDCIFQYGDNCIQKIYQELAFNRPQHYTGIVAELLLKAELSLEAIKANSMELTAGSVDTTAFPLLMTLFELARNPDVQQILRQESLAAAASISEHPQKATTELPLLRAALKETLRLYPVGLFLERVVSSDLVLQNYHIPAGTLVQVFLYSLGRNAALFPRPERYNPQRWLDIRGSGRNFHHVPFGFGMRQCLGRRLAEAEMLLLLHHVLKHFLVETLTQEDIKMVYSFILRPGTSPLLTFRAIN

In the case of `N#Cc1ccc([C@H]2CCc3cncn32)c(F)c1` [LCI699, osilodrostat], the Amax [1] is reported as 0.032, the “increase of Amax (enzyme population binding inhibitor at saturation)” value [2] is reported as ~1.7 fold and 1.7 fold and the “increase of Kd” value [2] is reported as 1.8 fold. It also gave an Amax (CYP11B2) of 0.019.
